test: Concentration required for inhibition of 5-alpha-Dihydrotestosterone (DHT) stimulated shionogi cell proliferation was determined; assay type: functional; conditions: Mus musculus

SMILES | IC50 [µM]
CN1C(=O)CC[C@]2(C)C3CC[C@@]4(C)C(CC[C@@]4(O)C#CCCBr)C3CCC12 (some centres not stated) | 0.279
CN1C(=O)C=C[C@]2(C)C3CC[C@@]4(C)C(CC[C@@]4(O)C#CCCCBr)C3CCC12 (some centres not stated) | 0.149
CN1C(=O)C=C[C@]2(C)C3CC[C@@]4(C)C(CC[C@@]4(O)C#CCCCl)C3CCC12 (some centres not stated) | 0.0945
CN1C(=O)C=C[C@]2(C)C3CC[C@@]4(C)C(CC[C@@]4(O)C#CCCCI)C3CCC12 (some centres not stated) | 0.179
CN1C(=O)CC[C@]2(C)C3CC[C@@]4(C)C(CC[C@@]4(O)C#CCCCBr)C3CCC12 (some centres not stated) | 0.325
CN1C(=O)CC[C@]2(C)C3CC[C@@]4(C)C(CC[C@@]4(O)C#CCCI)C3CCC12 (some centres not stated) | 0.16
CN1C(=O)CC[C@]2(C)C3CC[C@@]4(C)C(CC[C@@]4(O)C#CCCCCl)C3CCC12 (some centres not stated) | 0.129
CN1C(=O)CC[C@]2(C)C3CC[C@@]4(C)C(CC[C@@]4(O)C#CCCCl)C3CCC12 (some centres not stated) | 0.25
CC(C)(O)C(=O)Nc1ccc([N+](=O)[O-])c(C(F)(F)F)c1 [HYDROXYFLUTAMIDE] | 0.0525
CN1C(=O)C=C[C@]2(C)C3CC[C@@]4(C)C(CC[C@@]4(O)C#CCCBr)C3CCC12 (some centres not stated) | 0.142
CN1C(=O)CC[C@]2(C)C3CC[C@@]4(C)C(CC[C@@]4(O)C#CCCCI)C3CCC12 (some centres not stated) | 0.328
CN1C(=O)C=C[C@]2(C)C3CC[C@@]4(C)C(CC[C@@]4(O)C#CCCI)C3CCC12 (some centres not stated) | 0.0968
CN1C(=O)C=C[C@]2(C)C3CC[C@@]4(C)C(CC[C@@]4(O)C#CCCCCl)C3CCC12 (some centres not stated) | 0.0672

test: Concentration required for inhibition of 5-alpha-Dihydrotestosterone (DHT) stimulated shionogi cell proliferation was determined; No activity was observed at 1 uM; assay type: functional; conditions: Mus musculus

SMILES | IC50 [µM]
CN1C(=O)CC[C@]2(C)C3CC[C@@]4(C)C(CC[C@@]4(O)C#CCCO)C3CCC12 (some centres not stated) | > 1
CN1C(=O)C=C[C@]2(C)C3CC[C@@]4(C)C(CC[C@@]4(O)C#CCCCO)C3CCC12 (some centres not stated) | > 1
CN1C(=O)C=C[C@]2(C)C3CC[C@@]4(C)C(CC[C@@]4(O)C#CCCO)C3CCC12 (some centres not stated) | > 1
CN1C(=O)CC[C@]2(C)C3CC[C@@]4(C)C(CC[C@@]4(O)C#CCCCO)C3CCC12 (some centres not stated) | > 1

— ChEMBL document CHEMBL1150478, “Synthesis and in vitro antiandrogenic activity of 17-hydroxy-17-(-hydroxy/haloalkyn-1-yl)-4-methyl-4-aza-3-oxo-5-androstan-(1-ene)-3-ones” (Bioorg Med Chem Lett, 1995)
